One series deals with human liver microsomes. The experiment in a line: Microsomal stability assay. Format: in vitro ADME. The settings on record: for Eh (hepatic extraction ratio): fu = 1, Q = 20.0 mL∙min-1∙kg-1, human; for Clint,micro: human liver microsomes. How it is done: (§1) 4. Microsomal stability assay
(§2) A microsomal stability assay was performed according to an internal standard procedure. Positive control compound diclofenac and three test items were freshly prepared as sub-dilutions in phosphate buffer (100 mM, pH 7.4) at concentrations of 200 µM and 20 µM, respectively. All incubations were conducted in triplicate in glass screw neck vials (1.5 mL, flat bottom, Macherey-Nagel, Düren, Germany) on a Thermomixer C (Eppendorf, Germany) at 37 °C and 1500 rpm. The incubation mixtures contained 270 µL human liver microsomes (HLM, 1.1 mg∙mL -1, UltraPool HLM 150, Corning B.V.
(§3) Life Science, Amsterdam, the Netherlands), 270 µL NADP regeneration mix (1 mM NADP, 5 mM glucose-6-phosphate, 5 units∙mL -1 glucose-6-phosphate dehydrogenase and 5 mM MgCl 2) and 30 µL phosphate buffer to reach a total volume of 570 µL. Negative controls were performed with heat inactivated (80 °C, 30 min) HLM solution. Reactions were initiated by addition of diclofenac or the test item solution (30 µL). Aliquots of 100 µL were taken at 1, 15, 30, 60, and 90 minutes and immediately processed with 100 µL acetonitrile at 4°C to terminate the reactions, and shaken for 2 minutes at 4°C with 1600 rpm. The mixed samples were further centrifuged for 2 minutes at 4 °C with 16.1 krcf. The supernatants were withdrawn and subjected to high resolution mass spectrometry analysis without […]
(§4) Analysis of microsomal stability assay
(§5) Samples were analyzed using a Vanquish Horizon UHPLC system (Thermo Fisher Scientific, Bremen, Germany) coupled to a Thermo Scientific QExactive HF-X Orbitrap mass spectrometer (Thermo Fisher Scientific, Bremen, Germany) using a UPLC column (ACQUITY HSS T3, Waters, 1.8 µm particle size, 2.1 × 50 mm dimensions) equipped with a pre-column (ACQUITY HSS T3 VanGuard Pre-column, Waters, 1.8 µm particle size, 2.1 × 5 mm dimensions). The column temperature was maintained at 25°C, and the samples were kept at 4°C. The UHPLC system was operated at a flow rate of 0.6 mL/min and an injection volume of 5 µL. Mobile phases consisted of 0.1% (v/v) formic acid in water (Eluent A) and 0.1% (v/v) formic acid in acetonitrile (Eluent B). Chromatographic separation was obtained as follows:
(§6) 0 to 4 min: a linear from 5 to 98% of Eluent B; 4 to 6.5 min: isocratic at 98% B; 6.5 to 7 min: linear from 98 to 5% B; 7 to 9 min: isocratic at 5% B. The high-resolution mass spectra were acquired with electrospray ionization at both positive and negative modes. A scan range of m/z 120 to 1800 was chosen, and the maximum injection time was set to 200 ms. Ion source parameters were: spray voltage 3.5 kV, capillary temperature 320°C, RF level 40, sheath gas pressure 50 (N 2 > 95%), auxiliary gas 10 (N2 > 95%), auxiliary gas heater temperature 300°C. The value for the automatic gain control (AGC) target was set to 10 6, resolution was 60000, and chromatographic peak width (FWHM) was 15 s.
(§7) Calculation of the results from microsomal stability assay
(§8) Elimination rate constant (k) = (- gradient)
(§9) Half-life (t ) (min) = ௟௡
(§10) V (µL∙mg -1) = ௩௢௟௨௠௘ ௢௙ ௜௡௖௨௕௔௧௜௢௡ (µ௅) […]
(§11) Intrinsic clearance in liver microsomes (Cl ) (µL∙min∙mL -1protein) = ௏ × ௟௡ଶ […]
(§12) Intrinsic clearance (Cl ) (mL∙min -1∙kg -1) = ௟௡ × ௏ × ௠௚ ௠௜௖௥௢௦௢௠௔௟ ௣௥௢௧௘௜௡ × ௚ ௟௜௩௘௥ int ௧భ/మ ଵ଴଴଴ ௚ ௟௜௩௘௥ ௪௘௜௚௛௧ ௞௚ ௕௢ௗ௬ ௪௘௜௚௛௧
(§13) (52.5 mg protein∙ g -1 liver used for human; 22.0 g∙ kg -1 liver to body weight used for human) Hepatic extraction ratio (E ) = ୤౫ × େ୪౟౤౪
(§14) (fu: fraction of drug unbound in plasma, f u = 1 used for the calculation; Q: hepatic blood flow, 20.0 mL∙min-1∙kg -1 for human).
On the technique in general: Liver microsomes are vesicles of endoplasmic reticulum, rich in cytochrome P450 enzymes.

Series [1] can be described thus: Microsomal stability assay. Type of series: in vitro ADME, human. Particulars: pH 7.4; for CLint scaled at 1 µM: liver microsomes, scaled: 52.5 mg protein/g liver, 22.0 g liver/kg, human; for half-life at 1 µM: human liver microsomes, 37 °C. As to the method:
as §1, §2, §3, §4, §5, §6, §7, §8, §9, §10, §11, §12, §13, §14

In the next series the test system is HUVEC. The series is described as follows: Proliferation assay. Format: cell-based. The settings on record: Homo sapiens, 72 h, n = 4. As to the method: Supplementary Method 5: Biological Assays […]
2. Proliferation and cytotoxicity assay
Cells and culture conditions
The following cell lines and media were used:
Cell line Cell culture medium
Cells were grown in the appropriate cell culture medium supplemented with 10 mL/L ultraglutamine 1 […]
heat inactivated fetal bovine serum (GIBCO Life Technologies 10270-106) at 37 °C in 5% CO 2 in high density polyethylene flasks (NUNC 156340).
To decide if the compounds have an antiproliferative and/or a cytotoxic effect on human cells, cell death and retardation of cell proliferation were assessed. Under our experimental conditions, the optical density measured from the CellTiter-Blue® reagent and methylene blue assay is proportional to the […]
The test substances were dissolved in DMSO and further diluted in the cell culture medium. The adherent cells were harvested at the logarithmic growth phase after soft trypsinization using 0.25% trypsin in PBS containing 0.02% EDTA (Biochrom KG L2163). For each experiment, approximately 10,000 cells were seeded with 0.1 mL culture medium per well of the 96-well microplates (HUVEC: flat bottomed NUNC 167008, K-562: round bottomed NUNC 163320). To test the antiproliferative […]
effect of test compounds on HUVEC and K-562, the cells were incubated for 72 hours in plates prepared with control and different dilutions of test substances. […]
of proliferation compared to the untreated control. […]
Cells were incubated with dilutions of the test substances in microplates for 72 hours at 37 °C in a humidified atmosphere and 5% CO 2. […]
cytotoxicity and the inhibition of cell proliferation. The number of viable cells was determined subsequent to staining with CellTiter-Blue® reagent or methylene blue. […]
HUVEC and HeLa cells: The adherent HUVEC and HeLa cells were fixed by glutaraldehyde (MERCK […]
gently washing, the stain was eluted by adding 0.2 mL of hydrochloric acid (0.33 M) to each well. The optical densities were measured at 660 nm (methylene blue) in SUNRISE microplate reader (TECAN).
General remarks: Signals from the methylene blue and CellTiter-Blue® reagent are proportional to the number of viable cells. A repeat determination has been conducted in all experiments, four replicates were assayed. The calculations of the different values of GI 50 and CC 50 were performed with the software

SMILES strings stand for the structures. Where only a bound is given, the exact number is not on record here.

With `COC(=O)c1cc([N+](=O)[O-])c2sc(N3CCC4(CC3)OC[C@H](C)O4)nc(=O)c2c1` [Compound 6a], in the series with human liver microsomes, the “Eh (hepatic extraction ratio)” value is given as 94.8% and the “Clint,micro” value is given as 314.7 µl.min-1-mg-1 protein. Further, in series [1], the CLint scaled at 1 µM turned out to be 363 mL/min/kg and the half-life at 1 µM stood at 0.0742 h. In the series on HUVEC, the GI50 was 80.6 ± 5 µM.

With `CC(C)OC(=O)c1cc([N+](=O)[O-])c2sc(N3CCC4(CC3)OC[C@H](C)O4)nc(=O)c2c1` [Compound 6c], in the series with human liver microsomes, the “Eh (hepatic extraction ratio)” value is 75.3% and the “Clint,micro” value worked out at 52.9 µl.min-1-mg-1 protein. In addition, in series [1], the intrinsic metabolic clearance (CLint scaled) at 1 µM came to 61.1 mL/min/kg and the half-life at 1 µM turned out to be 0.441 h. The molecule further came in with a GI50 in the series on HUVEC greater than 111 µM.

With `C[C@H]1COC2(CCN(c3nc(=O)c4cc(C(=O)N(C)C)cc([N+](=O)[O-])c4s3)CC2)O1` [Compound 7c], in the series with human liver microsomes, the “Eh (hepatic extraction ratio)” value came to 13% and the “Clint,micro” value amounted to 2.6 µl.min-1-mg-1 protein. In series [1], this molecule displayed a CLint scaled at 1 µM of 3 mL/min/kg and a half-life at 1 µM of 8.89 h. Besides, the GI50 with HUVEC was greater than 115 µM.

On to `CON(C)C(=O)c1cc([N+](=O)[O-])c2sc(N3CCC4(CC3)OC[C@H](C)O4)nc(=O)c2c1` [Compound 7f], for which, in the series on human liver microsomes, the “Eh (hepatic extraction ratio)” value turned out to be 35.5% and the “Clint,micro” value was found to be 9.5 µl.min-1-mg-1 protein. Further, in series [1], the CLint scaled at 1 µM came out at 11 mL/min/kg and the half-life at 1 µM was 2.46 h. The molecule also came in with a GI50 with HUVEC of 98.5 ± 3.3 µM.

Regarding `C[C@H]1COC2(CCN(c3nc(=O)c4cc(C(=O)O)cc([N+](=O)[O-])c4s3)CC2)O1` [Compound 8], in the series on HUVEC, the GI50 was greater than 123 µM.

As to `C[C@H]1COC2(CCN(c3nc(=O)c4cc(C#N)cc([N+](=O)[O-])c4s3)CC2)O1` [Compound 9], in the series on human liver microsomes, the “Eh (hepatic extraction ratio)” value was determined as 43.5% and the “Clint,micro” value came out at 13.3 µl.min-1-mg-1 protein. In series [1], this molecule returned a CLint scaled at 1 µM of 15.4 mL/min/kg and a half-life at 1 µM of 1.75 h. Moreover, growth with HUVEC was halved (GI50) at 49.9 ± 4.1 µM.

Take `C[C@H]1COC2(CCN(c3nc(=O)c4cc(I)cc([N+](=O)[O-])c4s3)CC2)O1` [Compound 10]: in the series with human liver microsomes, the “Eh (hepatic extraction ratio)” value worked out at 48.8% and the “Clint,micro” value was determined as 16.1 µl.min-1-mg-1 protein. In series [1], this molecule showed a CLint scaled at 1 µM of 19.1 mL/min/kg and a half-life at 1 µM of 1.41 h. Also, the GI50 in the series on HUVEC was greater than 102 µM.

As for `C[C@H]1COC2(CCN(c3nc(=O)c4cc(Br)cc([N+](=O)[O-])c4s3)CC2)O1` [Compound 11], in the series with human liver microsomes, the “Eh (hepatic extraction ratio)” value came to 47.9% and the “Clint,micro” value turned out to be 16 µl.min-1-mg-1 protein. In series [1], this molecule came in with a CLint scaled at 1 µM of 18.4 mL/min/kg and a half-life at 1 µM of 1.46 h. In the series on HUVEC, this molecule displayed a GI50 greater than 113 µM.

For `C[C@H]1COC2(CCN(c3nc(=O)c4cccc([N+](=O)[O-])c4s3)CC2)O1` [Compound 23], in the series with human liver microsomes, the “Eh (hepatic extraction ratio)” value is reported as 22.5% and the “Clint,micro” value was found to be 5.1 µl.min-1-mg-1 protein. In series [1], this molecule gave a CLint scaled at 1 µM of 5.8 mL/min/kg and a half-life at 1 µM of 4.62 h. Besides, the GI50 in the series on HUVEC is greater than 137 µM.

What is called CLint scaled is the rate of metabolic loss divided by the concentration. Read a low CLint scaled as slow turnover. A word on the half-life: it is the time in which the quantity being followed falls by half. A word on the GI50: it is the concentration giving 50% growth inhibition.
